Patent publication US9376436B2, “2-(pyridin-2yl)-1, 7-diaza-spiro [4.4] nonane-6-one compound as voltage-gated sodium channels modulators” (CONVERGENCE PHARMACEUTICALS LIMITED, priority 2011, dated 2016)
Counter-ions that a name gives are not always drawn. Like-named read-outs stand apart in the source and are kept apart here.

Target: T1, hNaV1.7 (Homo sapiens, UniProt Q15858)
T1 construct: expressed in transfected cells; host or cells: HEK293
Test: QPatch NaV1.7 assay (whole-cell patch clamp, QPatch16x)
Format: cell-based
Details: HEK293-hNaV1.7 cells
Method in brief: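 HEK293 cells expressing hNaV1.7 recorded by automated whole-cell patch clamp (CsF internal, pH 7.3). Peak currents from 20 ms steps to 0 mV measured at holding potentials of −90 mV and V1/2 SSI; four-point cumulative concentrations, 120 s each, Hill fits gave pIC50 at each potential.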

[1] = holding voltage V1/2 SSI (half of channels inactivated), read-out: QP Nav1.7 SSI vhalf pIC50 (converted)
[2] = holding voltage −90 mV (most channels closed), read-out: QP Nav1.7 −90 mV pIC50 (converted)

T1 sequence (Q15858 whole entry): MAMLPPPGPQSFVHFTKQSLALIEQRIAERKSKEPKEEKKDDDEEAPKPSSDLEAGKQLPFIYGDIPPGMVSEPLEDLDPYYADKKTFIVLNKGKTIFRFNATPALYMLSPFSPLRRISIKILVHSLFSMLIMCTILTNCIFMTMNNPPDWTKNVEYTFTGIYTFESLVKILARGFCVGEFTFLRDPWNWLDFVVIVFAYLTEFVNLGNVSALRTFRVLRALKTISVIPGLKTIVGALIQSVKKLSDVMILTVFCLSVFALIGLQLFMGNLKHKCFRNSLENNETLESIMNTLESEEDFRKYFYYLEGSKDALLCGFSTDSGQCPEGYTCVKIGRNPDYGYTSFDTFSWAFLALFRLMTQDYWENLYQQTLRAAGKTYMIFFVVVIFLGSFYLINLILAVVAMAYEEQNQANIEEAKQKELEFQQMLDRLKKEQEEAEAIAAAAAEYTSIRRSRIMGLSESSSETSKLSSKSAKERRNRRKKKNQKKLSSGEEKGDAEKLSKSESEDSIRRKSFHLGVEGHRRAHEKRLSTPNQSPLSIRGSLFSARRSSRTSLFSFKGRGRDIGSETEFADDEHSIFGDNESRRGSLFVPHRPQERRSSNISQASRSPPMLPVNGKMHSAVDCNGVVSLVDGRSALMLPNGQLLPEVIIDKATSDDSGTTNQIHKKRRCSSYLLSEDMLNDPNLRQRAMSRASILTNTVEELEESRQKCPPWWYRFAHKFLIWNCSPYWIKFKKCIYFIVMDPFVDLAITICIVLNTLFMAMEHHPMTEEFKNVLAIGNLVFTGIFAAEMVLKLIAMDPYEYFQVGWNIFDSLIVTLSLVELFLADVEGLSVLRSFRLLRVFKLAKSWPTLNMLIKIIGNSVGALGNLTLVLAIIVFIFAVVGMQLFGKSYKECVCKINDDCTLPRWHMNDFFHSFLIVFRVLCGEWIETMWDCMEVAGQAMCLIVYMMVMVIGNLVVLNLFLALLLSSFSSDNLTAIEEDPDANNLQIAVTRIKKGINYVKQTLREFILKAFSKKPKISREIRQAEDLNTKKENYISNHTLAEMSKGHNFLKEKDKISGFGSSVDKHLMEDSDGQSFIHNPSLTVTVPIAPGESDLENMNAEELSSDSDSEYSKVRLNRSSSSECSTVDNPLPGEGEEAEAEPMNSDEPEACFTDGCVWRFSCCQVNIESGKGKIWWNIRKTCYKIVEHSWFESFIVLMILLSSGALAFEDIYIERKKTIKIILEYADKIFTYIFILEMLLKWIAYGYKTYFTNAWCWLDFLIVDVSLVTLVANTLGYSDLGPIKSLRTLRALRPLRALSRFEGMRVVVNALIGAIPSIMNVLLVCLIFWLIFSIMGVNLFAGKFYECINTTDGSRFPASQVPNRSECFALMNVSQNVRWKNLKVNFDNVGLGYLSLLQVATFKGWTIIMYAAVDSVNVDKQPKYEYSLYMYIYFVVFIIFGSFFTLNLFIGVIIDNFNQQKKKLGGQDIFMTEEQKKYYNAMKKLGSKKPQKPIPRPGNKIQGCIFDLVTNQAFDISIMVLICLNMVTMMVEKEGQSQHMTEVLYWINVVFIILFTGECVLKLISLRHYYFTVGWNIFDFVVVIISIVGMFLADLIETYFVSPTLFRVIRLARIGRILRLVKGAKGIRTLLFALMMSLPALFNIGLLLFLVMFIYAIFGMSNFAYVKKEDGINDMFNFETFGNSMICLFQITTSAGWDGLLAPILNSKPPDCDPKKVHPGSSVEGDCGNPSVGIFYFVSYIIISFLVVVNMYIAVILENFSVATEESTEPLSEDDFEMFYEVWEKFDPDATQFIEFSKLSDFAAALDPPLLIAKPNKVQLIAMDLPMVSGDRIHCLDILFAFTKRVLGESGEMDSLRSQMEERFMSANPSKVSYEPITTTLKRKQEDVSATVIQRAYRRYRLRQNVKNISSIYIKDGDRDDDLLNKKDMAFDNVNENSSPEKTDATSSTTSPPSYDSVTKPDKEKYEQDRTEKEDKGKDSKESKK

Row | IC50 [1] | IC50 [2] | SMILES
1 | 50.1 µM | 200 µM | CC1(C)C[C@]2(CC[C@H](c3cc(-c4cc(O)ccc4F)ccn3)N2)C(=O)N1 [Example 220, (2R,5R)-2-[4-(2-Fluoro-5-hydroxy-phenyl)-2-pyridyl]-8,8-dimethyl-1,7-diazaspiro[4.4]nonan-6-one]
2 | 31.6 µM | 316 µM | CCOc1ccc(F)c(-c2cc([C@@H]3CC[C@]4(CCN(C)C4=O)N3)ncc2F)c1 [Example 221, (2S,5R)-2-[4-(5-Ethoxy-2-fluoro-phenyl)-5-fluoro-2-pyridyl]-7-methyl-1,7-diazaspiro[4.4]nonan-6-one hydrochloride]
3 | 25.1 µM | 398 µM | CCOc1ccc(F)c(-c2cc([C@H]3CC[C@]4(CCN(C)C4=O)N3)ncc2F)c1 [Example 222, (2R,5R)-2-[4-(5-Ethoxy-2-fluoro-phenyl)-5-fluoro-2-pyridyl]-7-methyl-1,7-diazaspiro[4.4]nonan-6-one hydrochloride]
4 | 25.1 µM | 158 µM | CCOc1ccc(F)c(-c2cc([C@H]3CC[C@@]4(CCN(C)C4=O)N3)ncc2F)c1 [Example 223, (2R,5S)-2-[4-(5-Ethoxy-2-fluoro-phenyl)-5-fluoro-2-pyridyl]-7-methyl-1,7-diazaspiro[4.4]nonan-6-one hydrochloride]
5 | 15.8 µM | 100 µM | CCOc1ccc(F)c(-c2cc([C@@H]3CC[C@@]4(CCN(C)C4=O)N3)ncc2F)c1 [Example 224, (2S,5S)-2-[4-(5-Ethoxy-2-fluoro-phenyl)-5-fluoro-2-pyridyl]-7-methyl-1,7-diazaspiro[4.4]nonan-6-one hydrochloride]
6 | 25.1 µM | 251 µM | CN1CC[C@@]2(CC[C@H](c3cc(-c4ccc(C(F)(F)F)cc4)ccn3)N2C)C1=O [Example 225, (2R,5S)-1,7-Dimethyl-2-[4-[4-(trifluoromethyl)phenyl]-2-pyridyl]-1,7-diazaspiro[4.4]nonan-6-one hydrochloride]
7 | 12.6 µM | 1580 µM | Cc1cc(-c2ccc(C(F)(F)F)cc2)cc([C@@H]2CC[C@@]3(CCNC3=O)N2C)n1 [Example 226, (2S,5S)-1-Methyl-2-[6-methyl-4-[4-(trifluoromethyl)phenyl]-2-pyridyl]-1,7-diazaspiro[4.4]nonan-6-one hydrochloride]
8 | 12.6 µM | 158 µM | Cc1cc(-c2ccc(C(F)(F)F)cc2)cc([C@H]2CC[C@]3(CCNC3=O)N2C)n1 [Example 227, (2R,5R)-1-Methyl-2-[6-methyl-4-[4-(trifluoromethyl)phenyl]-2-pyridyl]-1,7-diazaspiro[4.4]nonan-6-one hydrochloride]
9 | 3.16 µM | 20 µM | Cc1cc(-c2ccc(C(F)(F)F)cc2)cc([C@@H]2CC[C@]3(CCNC3=O)N2C)n1 [Example 228, (2S,5R)-1-Methyl-2-[6-methyl-4-[4-(trifluoromethyl)phenyl]-2-pyridyl]-1,7-diazaspiro[4.4]nonan-6-one hydrochloride]
10 | 3.16 µM | 63.1 µM | Cc1cc(-c2ccc(C(F)(F)F)cc2)cc([C@H]2CC[C@@]3(CCNC3=O)N2C)n1 [Example 229, (2R,5S)-1-Methyl-2-[6-methyl-4-[4-(trifluoromethyl)phenyl]-2-pyridyl]-1,7-diazaspiro[4.4]nonan-6-one hydrochloride]
11 | 1.26 µM | 25.1 µM | CN1[C@H](c2cc(-c3ccc(C(F)(F)F)cc3)ccn2)CC[C@]12CCCNC2=O [Example 230, hydrochloride]
12 | 1 µM | 12.6 µM | CCOc1ccc(F)c(-c2cc(C)nc([C@@H]3CC[C@]4(CCN(C)C4=O)N3C)c2)c1 [Example 231, (2S,5R)-2-[4-(5-Ethoxy-2-fluoro-phenyl)-6-methyl-2-pyridyl]-1,7-dimethyl-1,7-diazaspiro-[4.4]nonan-6-one hydrochloride]
13 | 1.26 µM | 7.94 µM | CN1[C@@H](c2cc(-c3ccc(C(F)(F)F)cc3)ccn2)CC[C@]12CCCNC2=O [Example 232, hydrochloride]
14 | 12.6 µM | 31.6 µM | CCN1[C@H](c2cc(-c3ccc(C(F)(F)F)cc3)ccn2)CC[C@]12CCCNC2=O [Example 233, hydrochloride]
15 | 0.0501 µM | 1 µM | CCOc1ccc(F)c(-c2cc(C(C)C)nc([C@H]3CC[C@]4(CCN(C)C4=O)N3)c2)c1 [Example 234, (2R,5R)-2-[4-(5-Ethoxy-2-fluoro-phenyl)-6-isopropyl-2-pyridyl]-7-methyl-1,7-diazaspiro[4.4]nonan-6-one hydrochloride]
16 | 2 µM | 15.8 µM | CCOc1ccc(F)c(-c2cc(C(C)C)nc([C@@H]3CC[C@]4(CCN(C)C4=O)N3)c2)c1 [Example 235, (2S,5R)-2-[4-(5-Ethoxy-2-fluoro-phenyl)-6-isopropyl-2-pyridyl]-7-methyl-1,7-diazaspiro[4.4]nonan-6-one hydrochloride]

Row | IC50 [1] | IC50 [2] | SMILES
17 | 0.631 µM | 6.31 µM | CCOc1ccc(F)c(-c2cc(C(C)C)nc([C@@H]3CC[C@@]4(CCN(C)C4=O)N3)c2)c1 [Example 236, (2S,5S)-2-[4-(5-Ethoxy-2-fluoro-phenyl)-6-isopropyl-2-pyridyl]-7-methyl-1,7-diazaspiro[4.4]nonan-6-one hydrochloride]
18 | 0.316 µM | 2.51 µM | CCOc1ccc(F)c(-c2cc(C(C)C)nc([C@H]3CC[C@@]4(CCN(C)C4=O)N3)c2)c1 [Example 237, (2R,5S)-2-[4-(5-Ethoxy-2-fluoro-phenyl)-6-isopropyl-2-pyridyl]-7-methyl-1,7-diazaspiro[4.4]nonan-6-one hydrochloride]
19 | 15.8 µM | 100 µM | CCOc1ccc(F)c(-c2cc([C@H]3CC[C@@]4(CCN(C)C4=O)N3)ncc2CC)c1 [Example 241, (2R,5S)-2-[4-(5-Ethoxy-2-fluoro-phenyl)-5-ethyl-2-pyridyl]-7-methyl-1,7-diazaspiro[4.4]nonan-6-one hydrochloride]
20 | 20 µM | 100 µM | CCOc1ccc(F)c(-c2cc([C@@H]3CC[C@]4(CCN(C)C4=O)N3)ncc2CC)c1 [Example 242, (2S,5R)-2-[4-(5-Ethoxy-2-fluoro-phenyl)-5-ethyl-2-pyridyl]-7-methyl-1,7-diazaspiro[4.4]nonan-6-one hydrochloride]
21 | 1.26 µM | 15.8 µM | CCOc1ccc(F)c(-c2ccnc([C@H]3CC[C@]4(CC[C@H](C)NC4=O)N3)c2)c1 [Example 243, hydrochloride]
22 | 3.16 µM | 39.8 µM | CCOc1ccc(F)c(-c2ccnc([C@@H]3CC[C@]4(CC[C@H](C)NC4=O)N3)c2)c1 [Example 244, hydrochloride]
23 | 1 µM | 15.8 µM | CCOc1ccc(F)c(-c2ccnc([C@H]3CC[C@@]4(CC[C@H](C)NC4=O)N3)c2)c1 [Example 246, hydrochloride]
24 | 1.26 µM | 15.8 µM | CCOc1ccc(F)c(-c2cc(OC)nc([C@@H]3CC[C@@]4(CCN(C)C4=O)N3)c2)c1 [Example 249, (2S,5S)-2-[4-(5-Ethoxy-2-fluoro-phenyl)-6-methoxy-2-pyridyl]-7-methyl-1,7-diazaspiro[4.4]nonan-6-one hydrochloride]
25 | 1.26 µM | 20 µM | CCOc1ccc(F)c(-c2cc(OC)nc([C@H]3CC[C@@]4(CCN(C)C4=O)N3)c2)c1 [Example 250, (2R,5S)-2-[4-(5-Ethoxy-2-fluoro-phenyl)-6-methoxy-2-pyridyl]-7-methyl-1,7-diazaspiro[4.4]nonan-6-one hydrochloride]
26 | 39.8 µM | 398 µM | CN1CC[C@@]2(CC[C@H](c3cc(-c4cc(OCCF)ccc4F)ccn3)N2)C1=O [Example 251, (2R,5S)-2-[4-[2-Fluoro-5-(2-fluoroethoxyl)phenyl]-2-pyridyl]-7-methyl-1,7-diazaspiro[4.4]nonan-6-one hydrochloride]
27 | 12.6 µM | 79.4 µM | CN1CC[C@@]2(CC[C@H](c3cc(-c4cc(OCC(F)F)ccc4F)ccn3)N2)C1=O [Example 252, (2R,5S)-2-[4-[5-(2,2-Difluoroethoxy)-2-fluoro-phenyl]-2-pyridyl]-7-methyl-1,7-diazaspiro[4.4]nonan-6-one hydrochloride]
28 | 6.31 µM | 50.1 µM | Cl.[2H]C([2H])(C)Oc1ccc(F)c(-c2ccnc([C@H]3CC[C@@]4(CCN(C)C4=O)N3)c2)c1 [Example 254, (2R,5S)-2-[4-[5-(1,1-Dideuterioethoxy)-2-fluoro-phenyl]-2-pyridyl]-7-methyl-1,7-diazaspiro[4.4]nonan-6-one hydrochloride]
29 | 10 µM | 100 µM | CC(Oc1ccc(F)c(-c2ccnc([C@H]3CC[C@@]4(CCN(C)C4=O)N3)c2)c1)C1CC1 (stereo partly drawn) [Example 255, (2R,5S)-2-[4-[5-(1-(Cyclopropyl)ethoxy)-2-fluoro-phenyl]-2-pyridyl]-7-methyl-1,7-diazaspiro[4.4]nonan-6-one hydrochloride]
30 | 63.1 µM | 2510 µM | CCC(=O)c1ccc(F)c(-c2ccnc([C@H]3CC[C@@]4(CCN(C)C4=O)N3)c2)c1 [Example 257, (2R,5S)-2-[4-(2-Fluoro-5-propanoyl-phenyl)-2-pyridyl]-7-methyl-1,7-diazaspiro[4.4]nonan-6-one hydrochloride]
31 | 31.6 µM | 39800 µM | CCn1ncc2cc(F)c(-c3ccnc([C@H]4CC[C@@]5(CCN(C)C5=O)N4)c3)cc21 [Example 258, (2R,5S)-2-[4-(1-Ethyl-5-fluoro-indazol-6-yl)-2-pyridyl]-7-methyl-1,7-diazaspiro[4.4]nonan-6-one hydrochloride]

Row | SMILES | IC50 [1] | IC50 [2]
32 | CC(C)COc1ccc(F)c(-c2ccnc([C@H]3CC[C@@]4(CCN(C)C4=O)N3)c2)c1 [Example 253, (2R,5S)-2-[4-(2-Fluoro-5-isobutoxy-phenyl)-2-pyridyl]-7-methyl-1,7-diazaspiro[4.4]nonan-6-one hydrochloride] | 0.0794 µM | 3.16 µM
